# Results taken from ChEMBL document CHEMBL3286318, “Design and synthesis of quinolinopropellane derivatives with selective δ opioid receptor agonism” (Bioorg Med Chem Lett, 2014).
# Key:
# Homo sapiens [1] = species: Homo sapiens; assay: Selectivity ratio Ki for mu-opioid receptor (unknown origin) to Ki for delta-opioid receptor (unknown origin)
# [2] = target: T1, Kappa-type opioid receptor (Homo sapiens, UniProt P41145); assay: Displacement of [3H]U-69593 from kappa-opioid receptor (unknown origin)
# T1 sequence (P41145 whole entry): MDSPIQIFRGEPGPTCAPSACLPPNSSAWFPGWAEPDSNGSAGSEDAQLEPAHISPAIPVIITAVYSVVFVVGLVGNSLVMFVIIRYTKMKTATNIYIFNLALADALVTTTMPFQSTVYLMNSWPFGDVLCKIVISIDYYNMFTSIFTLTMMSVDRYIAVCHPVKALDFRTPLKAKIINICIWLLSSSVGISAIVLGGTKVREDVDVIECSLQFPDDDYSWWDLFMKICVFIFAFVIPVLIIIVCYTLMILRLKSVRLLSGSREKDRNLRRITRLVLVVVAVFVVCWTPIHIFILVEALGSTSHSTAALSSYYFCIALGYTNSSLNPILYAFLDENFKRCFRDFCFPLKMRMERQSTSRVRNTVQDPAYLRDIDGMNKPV
# Mu-type opioid receptor [3] = target: T2, Mu-type opioid receptor (Homo sapiens, UniProt P35372); assay: Displacement of [3H]DAMGO from mu-opioid receptor (unknown origin)
# T2 sequence (P35372 whole entry): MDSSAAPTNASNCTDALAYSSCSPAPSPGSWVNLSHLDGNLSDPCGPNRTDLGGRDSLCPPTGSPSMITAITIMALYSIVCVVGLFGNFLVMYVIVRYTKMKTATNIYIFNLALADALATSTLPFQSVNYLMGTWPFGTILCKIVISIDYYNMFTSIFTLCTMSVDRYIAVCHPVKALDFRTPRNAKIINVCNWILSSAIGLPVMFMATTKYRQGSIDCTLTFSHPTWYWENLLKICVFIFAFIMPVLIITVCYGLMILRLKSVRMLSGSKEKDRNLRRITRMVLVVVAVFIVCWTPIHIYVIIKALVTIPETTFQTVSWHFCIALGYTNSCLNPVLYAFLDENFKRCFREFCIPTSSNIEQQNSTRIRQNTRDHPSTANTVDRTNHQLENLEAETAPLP
# [4] = target: T3, Delta-type opioid receptor (Homo sapiens, UniProt P41143); assay: Displacement of [3H]DPDPE from delta-opioid receptor (unknown origin)
# T3 sequence (P41143 whole entry): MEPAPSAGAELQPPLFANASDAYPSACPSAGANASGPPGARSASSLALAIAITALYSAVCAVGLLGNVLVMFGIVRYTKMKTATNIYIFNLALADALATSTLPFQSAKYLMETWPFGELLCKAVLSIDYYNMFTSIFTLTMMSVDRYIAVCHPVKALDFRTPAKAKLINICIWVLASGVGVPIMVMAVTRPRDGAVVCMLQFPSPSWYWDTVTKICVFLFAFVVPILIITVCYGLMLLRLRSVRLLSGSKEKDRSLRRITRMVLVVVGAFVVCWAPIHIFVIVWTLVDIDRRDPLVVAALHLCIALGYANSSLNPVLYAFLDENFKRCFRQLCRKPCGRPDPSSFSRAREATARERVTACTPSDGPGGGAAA
# Homo sapiens [5] = species: Homo sapiens; assay: Selectivity ratio Ki for kappa-opioid receptor (unknown origin) to Ki for delta-opioid receptor (unknown origin)
# [6] = target: T3, Delta-type opioid receptor; assay: Agonist activity at delta-opioid receptor (unknown origin) by [35S]GTPgammaS binding assay; format: functional
# [7] = target: T1, Kappa-type opioid receptor; assay: Agonist activity at kappa-opioid receptor (unknown origin) by [35S]GTPgammaS binding assay
# Mu-type opioid receptor [8] = target: T2, Mu-type opioid receptor; assay: Agonist activity at mu-opioid receptor (unknown origin) by [35S]GTPgammaS binding assay; format: functional
SMILES,Ratio Ki (Homo sapiens [1]),Ki [2],Ki (Mu-type opioid receptor [3]),Ki [4],Ratio Ki (Homo sapiens [5]),EC50 [6],Emax [6],EC50 [7],EC50 (Mu-type opioid receptor [8]),Emax (Mu-type opioid receptor [8])
CN1CC[C@]23Cc4nc5ccccc5cc4C[C@]2(Cc2ccc(O)cc23)C1,1.63,195 nM,3.06 nM,1.88 nM,104,–,–,–,–,–
Oc1ccc2c(c1)[C@]13CCN(CC4CC4)C[C@@]1(C2)Cc1cc2ccccc2nc1C3,119,84.6 nM,112 nM,0.941 nM,89.9,2.5 nM,88%,836 nM,197 nM,56%
Oc1ccc2c(c1)[C@]13CCN(CC4(O)CC4)C[C@@]1(C2)Cc1cc2ccccc2nc1C3,378,879 nM,415 nM,1.1 nM,801,–,–,–,–,–
O=C1CC[C@@]23Cc4ccc(O)cc4[C@@]2(CCN(CC2CC2)C3)C1,–,17.4 nM,58.2 nM,448 nM,–,–,–,–,–,–
Oc1ccc2c(c1)[C@]13CCN(Cc4ccccc4)C[C@@]1(C2)Cc1cc2ccccc2nc1C3,2.42,594 nM,76.3 nM,31.6 nM,18.8,–,–,–,–,–
